# Values quoted from earlier work, collected in patent US20110015663A1, “Combination Therapies for the Treatment of Obesity” (priority 2009, published 2011).
# Conditions: literature studies
row,Compound,weight loss for drug compared with placebo
1,CCCCCCCCCCC[C@@H](C[C@@H]1OC(=O)[C@H]1CCCCCC)OC(=O)[C@H](CC(C)C)NC=O [orlistat],about 5 % of body weight
2,CC(C)CC(N(C)C)C1(c2ccc(Cl)cc2)CCC1 (stereo not drawn) [sibutramine],about 5 % of body weight
3,CC(C)(N)Cc1ccccc1 [phentermine],about 5 % of body weight
4,CCN[C@@H](C)Cc1cccc(C(F)(F)F)c1 [dexfenfluramine],about 5 % of body weight

# Conditions: not given
row,Compound,solubility in water
1,G-2-beta-cyclodextrin,147 % (w/v)
2,triacetyl-beta-cyclodextrin,insoluble
